Experimental data as given in article PMC10817174, “Integrated drug response prediction models pinpoint repurposed drugs with effectiveness against rhabdomyosarcoma” (PLOS ONE, 2024).
“Also recorded” adds a separate entry of the source. Like-named read-outs stand apart in the source and are kept apart here.

How the values were obtained:
[1] = test system: CCD-18Co (human colon fibroblast) cells; assay: MTT cell viability assay in normal control cells; assay type: cell-based; conditions: for IC50 / IC50(μM) CCD-18Co: normal cell control, 24 h; for selective anti-cancer activity against the RMS cell lines: based on the CCD-18Co control results
From the text: (§1) The RD (human embryonal rhabdomyosarcoma) and CCD-18Co (human colon fibroblast) cell lines were purchased from the Korean Cell Line Bank (KCLB). SJCRH30 (human alveolar rhabdomyosarcoma) cell line was purchased from the American Type Culture Collection (ATCC). RD and CCD-18Co cells were maintained in Dulbecco’s Modified Eagle’s Medium (DMEM; Gibco) supplemented with 10% fetal bovine serum (FBS; Gibco) and 1% penicillin/streptomycin (P/S; Gibco). SJCRH30 cells were maintained in Roswell Park Memorial Institute medium (RPMI 1640, Gibco) supplemented with 10% FBS and 1% P/S. Cells were grown in a humidified chamber containing 5% CO2 at 37°C. Cell line authentication was performed by short tandem repeat profile using PowerPlex® 18D system (Promega Corporation) and sequencing apparatus Applied Biosystems 3130xl Genetic Analyzer (Applied Biosystem) according to manufacturer’s protocol.
(§2) SJCRH30, RD, and CCD-18Co cells were seeded at 2 × 10^4 cells/well in 96-well plates. The candidate drugs were treated for 24 h. AZ628, BIX02189, fedratinib, nutlin-3a, VX-11e, SB590885, NSC207895, tubastatin A, CX-5461, navitoclax, GSK1070916 and the FDA-approved drug library were purchased from Selleckchem. GW.44175 was purchased from Cayman chemical. MTT (3-(4,5-Dimethylthiazol-2-yl)-2,5-Diphenyltetrazolium bromide, Sigma) cell viability detection reagent diluted in serum free medium was added to each well and incubated for 2 h at 37°C. The supernatant was removed, and 50 μL DMSO was added to dissolve the precipitate. Absorbance was measured at 570 nm using a Molecular Devices VersaMax microplate reader and SoftMax® Pro 5 software. IC50 was calculated with GraphPad Prism 7 software.

GDSC-SJCRH30 cell line = conditions: cited from earlier work; for Iorio_SJCRH30: Table S2, published drug response ref Iorio et al. (2016)
GDSC-RD cell line = conditions: cited from earlier work; for Iorio_RD: Table S2, published drug response ref Iorio et al. (2016)
[2] = test system: SJCRH30 (human alveolar rhabdomyosarcoma) cells; assay: MTT cell viability assay in SJCRH30 cells; assay type: cell-based; conditions: 24 h; for anti-proliferation / anti-cancer activity in SJCRH30 cells: in words; for IC50: SJ-S drugs, SJCRH30 cells, read-out: IC50(μM) RMS
From the text: as §1, §2

SJCRH30 cells = assay: Caspase-3/7 activity assay in SJCRH30 cells; assay type: cell-based, human; conditions: 24 h
Protocol: (§3) The activity of caspase-3/7 was detected with the CellEvent^TM Caspase-3/7 Green detection kit (Thermo Fisher Scientific, C10423), following the manufacturer’s instructions. SJCRH30 and RD cells were seeded at 2 × 10^4 cells/well in 96-well plates. […] Stained cells were observed under fluorescent microscopy (LEICA, DMI3000 B). Drugs were treated in triplicates and 4 pictures of each well were captured. The percentage of caspase-3/7 positive cells per field of view was quantified using ImageJ software.

[3] = test system: RD (human embryonal rhabdomyosarcoma) cells; assay: MTT cell viability assay in RD cells; assay type: cell-based; conditions: 24 h; for anti-proliferation / anti-cancer activity in RD cells: in words; for IC50: RD-S drugs, RD cells, read-out: IC50(μM) RMS
From the text: as §1, §2

RD cells = assay: Caspase-3/7 activity assay in RD cells; assay type: cell-based, human; conditions: 24 h
Protocol: as §3

Ewing’s sarcoma = test system: Ewing’s sarcoma; set-up: method as in PMID 26095524; conditions: Ewing’s sarcoma ref 42; cited from earlier work
[4] = heavily pre-treated soft-tissue sarcoma patients ref 43; cited from earlier work
uterine sarcoma = conditions: in vitro and in vivo ref 44; cited from earlier work
[5] = Homo sapiens, Rhabdomyosarcoma cell

| Structure (SMILES) | Iorio_SJCRH30 (GDSC-SJCRH30 cell line) | Iorio_RD (GDSC-RD cell line) | anti-proliferation / anti-cancer activity in SJCRH30 cells [2] | IC50 [2, 5] [µM] | IC50(μM) CCD-18Co ([1]; MTT) | anti-proliferation / anti-cancer activity in RD cells [3] | other results |
| --- | --- | --- | --- | --- | --- | --- | --- |
| CCc1cc2c(cc1N1CCC(N3CCOCC3)CC1)C(C)(C)c1[nH]c3cc(C#N)ccc3c1C2=O [Alectinib] | S | R | higher anti-cancer activity | 3.21 |  |  | IC50 ([1]; Homo sapiens, CCD-18Co, MTT): 5.96 µM |
| O=C(/C=C/c1cccc(S(=O)(=O)Nc2ccccc2)c1)NO [Belinostat] | R | R | higher anti-cancer activity; also recorded: reduced cells proliferation to a greater degree than the clinical drugs; also recorded: sensitive | 0.146 | No cytotoxicity |  | selective anti-cancer activity against the RMS cell lines [1]: selective anti-cancer activity; caspase-3/7 activation (SJCRH30 cells): increased level of caspase-3/7 activation; GDSC-SJCRH30 drug response (GDSC-SJCRH30 cell line): resistant; IC50 [2]: 0.146 µM |
| CCn1cc(-c2ccnc3[nH]c(-c4cccc(CN(C)C)c4)cc23)c(-c2ccc(NC(=O)N(C)C)cc2)n1 [GSK1070916] | R | R | higher anti-cancer activity | 1.4 | No cytotoxicity |  |  |
| CN1CCN(c2ccc([N+](=O)[O-])c3no[n+]([O-])c23)CC1 [NSC207895] | R | S |  |  | No cytotoxicity | higher anti-cancer activity; also recorded: effectively inhibited cell proliferation compared to vincristine and cyclophosphamide | selective anti-cancer activity against the RMS cell lines [1]: selective anti-cancer activity; IC50 [3]: 6.57 µM; caspase-3/7 activation (RD cells): significantly induced the activation of caspase-3/7; apoptosis induction (Ewing’s sarcoma): induces p53-independent apoptosis |
| CN(C)CCOc1ccc(-c2nc(-c3ccncc3)c(-c3ccc4c(c3)CC/C4=N\O)[nH]2)cc1 [SB590885] | R |  |  |  |  | higher anti-cancer activity | IC50 ([1]; Homo sapiens, CCD-18Co, MTT): 4.88 µM; IC50 ([3]; Homo sapiens): 2.52 µM |
| Cc1cnc(Nc2ccc(F)cc2Cl)nc1-c1c[nH]c(C(=O)N[C@H](CO)c2cccc(Cl)c2)c1 [VX-11e] | R | S |  |  |  | higher anti-cancer activity | IC50 ([1]; MTT): 4.04 µM; IC50 [3]: 3.79 µM |
| O=C(CCCCCCC(=O)Nc1ccccc1)NO [Vorinostat] | S |  | higher anti-cancer activity; also recorded: reduced cells proliferation to a greater degree than the clinical drugs |  |  |  | caspase-3/7 activation (SJCRH30 cells): increased level of caspase-3/7 activation; patients with long-term disease stabilization [4]: 6 of the 40; uterine sarcoma growth (uterine sarcoma): inhibited the uterine sarcoma growth |
| Cc1cnc(Nc2ccc(OCCN3CCCC3)cc2)nc1Nc1cccc(S(=O)(=O)NC(C)(C)C)c1 [fedratinib] | R | R | high non-selective anti-proliferation activity; also recorded: high in vitro sensitivity |  |  | high non-selective anti-proliferation activity; also recorded: high in vitro sensitivity | toxicity toward the CCD-18Co control line ([1]; MTT, in words): toxicity toward the control line; also recorded: highly sensitive; GDSC-RD drug response (GDSC-RD cell line): resistance |
